How the values were obtained:
Format in all cases: functional
Tetranychus urticae [1] = assay: Insecticidal activity against Tetranychus urticae (two-spotted spider mite) eggs in compound treated kidney bean leaf disk assessed as ovicidal at 62.5 ppm measured after 7 days; conditions: foliar, 168 h
Tetranychus urticae [2] = assay: Insecticidal activity against Tetranychus urticae (two-spotted spider mite) in compound treated kidney bean leaf disk assessed as mortality at 62.5 ppm measured after 7 days; conditions: foliar, 168 h
Nephotettix cincticeps [3] = assay: Insecticidal activity against Nephotettix cincticeps (green rice leafhopper) third instar larvae in compound treated rice seedlings assessed as mortality at 62.5 ppm measured after 7 days; conditions: 168 h
Tetranychus urticae [4] = assay: Insecticidal activity against Tetranychus urticae (two-spotted spider mite) eggs in compound treated kidney bean leaf disk assessed as ovicidal at 3.1 ppm measured after 7 days; conditions: foliar, 168 h
Tetranychus urticae [5] = assay: Insecticidal activity against Tetranychus urticae (two-spotted spider mite) in compound treated kidney bean leaf disk assessed as mortality at 3.1 ppm measured after 7 days; conditions: foliar, 168 h
Nephotettix cincticeps [6] = assay: Insecticidal activity against Nephotettix cincticeps (green rice leafhopper) third instar larvae in compound treated rice seedlings assessed as mortality at 3.1 ppm measured after 7 days; conditions: 168 h
Nephotettix cincticeps [7] = assay: Insecticidal activity against Nephotettix cincticeps (green rice leafhopper) third instar larvae in compound treated rice seedlings assessed as mortality at 1.3 ppm measured after 7 days; conditions: 168 h
Tetranychus urticae [8] = assay: Insecticidal activity against Tetranychus urticae (two-spotted spider mite) eggs in compound treated kidney bean leaf disk assessed as ovicidal at 500 ppm measured after 7 days; conditions: foliar, 168 h
Tetranychus urticae [9] = assay: Insecticidal activity against Tetranychus urticae (two-spotted spider mite) in compound treated kidney bean leaf disk assessed as mortality at 500 ppm measured after 7 days; conditions: foliar, 168 h
Nephotettix cincticeps [10] = assay: Insecticidal activity against Nephotettix cincticeps (green rice leafhopper) third instar larvae in compound treated rice seedlings assessed as mortality at 500 ppm measured after 7 days; conditions: 168 h
Tetranychus urticae [11] = assay: Insecticidal activity against Tetranychus urticae (two-spotted spider mite) eggs in compound treated kidney bean leaf disk assessed as ovicidal at 1.3 ppm measured after 7 days; conditions: foliar, 168 h
Tetranychus urticae [12] = assay: Insecticidal activity against Tetranychus urticae (two-spotted spider mite) in compound treated kidney bean leaf disk assessed as mortality at 1.3 ppm measured after 7 days; conditions: foliar, 168 h

Compound | mortality at 62.5 ppm (Tetranychus urticae [1]) | mortality at 62.5 ppm (Tetranychus urticae [2]) | mortality at 62.5 ppm (Nephotettix cincticeps [3]) | mortality at 3.1 ppm (Tetranychus urticae [4]) | mortality at 3.1 ppm (Tetranychus urticae [5]) | mortality at 3.1 ppm (Nephotettix cincticeps [6]) | mortality at 1.3 ppm (Nephotettix cincticeps [7]) | mortality at 500 ppm (Tetranychus urticae [8]) | mortality at 500 ppm (Tetranychus urticae [9]) | mortality at 500 ppm (Nephotettix cincticeps [10]) | mortality at 1.3 ppm (Tetranychus urticae [11]) | mortality at 1.3 ppm (Tetranychus urticae [12])
Cn1cc(C(=O)NCC(F)(F)F)c(OS(C)(=O)=O)n1 | 61% | 86% | 22% |  |  |  |  |  |  |  |  | 
CCCC(C#N)(CC)NC(=O)c1cn(C)nc1OS(C)(=O)=O (stereo not given) | 39% | 15% | 22% |  |  |  |  |  |  |  |  | 
Cn1cc(C(=O)NC2(C#N)CCCCC2)c(OS(C)(=O)=O)n1 | 20% | 93% | 50% |  |  |  |  |  |  |  |  | 
CCC(C#N)(CC)NC(=O)c1cn(C)nc1OS(C)(=O)=O | 100% | 100% | 100% | 100% | 100% | 55% |  |  |  |  |  | 
CC(C)C(C)(C#N)NC(=O)c1cn(C)nc1OS(C)(=O)=O (stereo not given) | 100% | 100% | 100% | 26% | 11% | 32% |  |  |  |  |  | 
CCC(C)(C#N)NC(=O)c1cn(C)nc1OS(C)(=O)=O (stereo not given) | 100% | 100% | 100% | 9% | 15% | 88% |  |  |  |  |  | 
CCCC(C)(C#N)NC(=O)c1cn(C)nc1OS(C)(=O)=O (stereo not given) | 67% | 64% | 100% | 3% | 8% | 81% |  |  |  |  |  | 
CCC(C#N)NC(=O)c1cn(C)nc1OS(C)(=O)=O (stereo not given) | 94% | 100% | 100% | 3% | 7% | 10% |  |  |  |  |  | 
Cn1cc(C(=O)NCC#N)c(OS(C)(=O)=O)n1 | 100% | 100% | 47% | 8% | 8% |  |  |  |  |  |  | 
CC(NC(=O)c1cn(C)nc1OS(C)(=O)=O)c1ccccc1 (stereo not given) | 0% | 0% | 81% |  |  |  |  |  |  |  |  | 
CCCCCC(C)NC(=O)c1cn(C)nc1OS(C)(=O)=O (stereo not given) | 6% | 29% | 94% |  |  | 8% |  |  |  |  |  | 
CCC(CC)NC(=O)c1cn(C)nc1OS(C)(=O)=O | 19% | 100% | 100% |  | 10% | 65% |  |  |  |  |  | 
Cn1cc(C(=O)NC(C)(C)C)c(OS(C)(=O)=O)n1 | 3% | 23% | 100% |  |  | 80% |  |  |  |  |  | 
CCCC(C)NC(=O)c1cn(C)nc1OS(C)(=O)=O (stereo not given) | 44% | 94% | 100% | 6% | 7% | 95% |  |  |  |  |  | 
CC(C)CNC(=O)c1cn(C)nc1OS(C)(=O)=O | 12% | 89% | 100% |  |  | 100% | 97% |  |  |  |  | 
Cn1cc(C(=O)NC2CC2)c(OS(C)(=O)=O)n1 | 9% | 21% | 97% |  |  | 10% |  |  |  |  |  | 

Compound | mortality at 62.5 ppm (Tetranychus urticae [1]) | mortality at 62.5 ppm (Tetranychus urticae [2]) | mortality at 62.5 ppm (Nephotettix cincticeps [3]) | mortality at 3.1 ppm (Tetranychus urticae [4]) | mortality at 3.1 ppm (Tetranychus urticae [5]) | mortality at 3.1 ppm (Nephotettix cincticeps [6]) | mortality at 1.3 ppm (Nephotettix cincticeps [7]) | mortality at 500 ppm (Tetranychus urticae [8]) | mortality at 500 ppm (Tetranychus urticae [9]) | mortality at 500 ppm (Nephotettix cincticeps [10]) | mortality at 1.3 ppm (Tetranychus urticae [11]) | mortality at 1.3 ppm (Tetranychus urticae [12])
CC(C)N(C)C(=O)c1cn(C)nc1OS(C)(=O)=O | 5% | 10% | 41% |  |  |  |  |  |  |  |  | 
CCNC(=O)c1cn(C)nc1OS(C)(=O)=O | 0% | 0% | 0% |  |  |  |  |  |  |  |  | 
CCCNC(=O)c1cn(C)nc1OS(C)(=O)=O | 7% | 25% | 87% |  |  |  |  |  |  |  |  | 
CNC(=O)c1cn(C)nc1OS(C)(=O)=O | 4% | 19% | 20% |  |  |  |  |  |  |  |  | 
CC(C)NC(=O)c1cn(C)nc1OS(=O)(=O)N(C)C | 0% | 0% | 0% |  |  |  |  |  |  |  |  | 
CC(C)NC(=O)c1cn(C)nc1OS(=O)(=O)C(F)(F)F | 10% | 15% | 24% |  |  |  |  |  |  |  |  | 
CC(C)NC(=O)c1cn(C)nc1OS(=O)(=O)CCl | 13% | 15% | 100% |  |  | 10% |  |  |  |  |  | 
CCS(=O)(=O)Oc1nn(C)cc1C(=O)NC(C)C | 2% | 14% | 100% |  |  | 55% |  |  |  |  |  | 
CCS(=O)(=O)Oc1nn(C(C)(C)C)cc1C(=O)NC(C)C |  |  |  |  |  |  |  | 0% | 50% | 0% |  | 
CC(C)NC(=O)c1cn(C(C)C)nc1OS(C)(=O)=O | 47% | 50% | 100% |  |  | 74% |  |  |  |  |  | 
CCCn1cc(C(=O)NC(C)C)c(OS(C)(=O)=O)n1 | 26% | 36% | 100% |  |  | 76% |  |  |  |  |  | 
CCn1cc(C(=O)NC(C)C)c(OS(C)(=O)=O)n1 | 13% | 51% | 100% |  |  | 100% |  |  |  |  |  | 
CC(C)NC(=O)c1cn(CCCl)nc1OS(C)(=O)=O | 34% | 80% | 100% | 30% | 15% | 96% |  |  |  |  |  | 
CC(C)NC(=O)c1cn(CCF)nc1OS(C)(=O)=O | 69% | 50% | 100% |  |  | 43% |  |  |  |  |  | 
CC(C)NC(=O)c1cn(C)nc1OS(C)(=O)=O | 37% | 100% | 100% | 23% | 17% | 100% | 74% |  |  |  | 22% | 16%

Source: ChEMBL document CHEMBL3045054, “Synthesis and insecticidal activity of novel 1-alkyl-3-sulfonyloxypyrazole-4-carboxamide derivatives” (2010)
